According to patent US20240245783A1, “METALLO-BETA-LACTAMASE INHIBITOR” (priority 2021, published 2024):

Tested on: E. coli clinical isolate expressing IMP-1
Assay: Meropenem MIC against E. coli clinical isolate expressing IMP-1 (Test Example 10)
Type: cell-based
Settings: Escherichia coli, 24 h, read-out: minimum inhibitory concentration
Protocol: The enhancing effect of DTPA-ADCA on the susceptibility of E. coli clinical isolate expressing IMP-1 to a carbapenem antibacterial agent (meropenem) was evaluated by the following method. The E. coli clinical isolate was cultured overnight with shaking in LB medium. The bacterial solution was diluted to 1/1000 with LB medium, used as a test bacterial solution, and then seeded in a 96-well plate. Meropenem (Wako Pure Chemical Industries, Ltd.) was added to the bacterial solution, thereby performing two-step dilution from a maximum of 10 μg/ml. The bacteria were cultured in an incubator at 37° C. for one day, and growth at that time was measured by turbidity (655 nm). The meropenem concentration at which no bacterial growth had been observed was defined as the minimum inhibitory concentration.
The effect of DTPA-ADCA on the susceptibility of an E. coli clinical isolate to meropenem was evaluated by the following method. The E. coli clinical isolate was cultured overnight with shaking in LB medium. The bacterial solution was diluted to 1/1000 with LB medium, used as the test bacterial solution, and then seeded in a 96-well plate. Meropenem (Wako Pure Chemical Industries, Ltd.) was added to this bacterial solution in the range of 0.1 μg/ml to 0.005 μg/ml. Here, DTPA or DTPA-ADCA was used in combination therewith at a concentration of […], and the effect on bacterial growth was examined. The bacteria were cultured in an incubator at 37° C. for one day, and the growth at that time was measured by turbidity (655 nm).
FIG. 20 depicts the results. Multidrug-resistant E. coli was cultured with compounds having the indicated concentrations and the bacterial load was assessed by turbidity after 24 hours. […] Combined use of DTPA-ADCA (20 μM) reduced the minimum inhibitory concentration of meropenem to […] and enhanced the antibacterial activity by 100 times.

C[C@@H](O)[C@H]1C(=O)N2C(C(=O)O)=C(S[C@@H]3CN[C@H](C(=O)N(C)C)C3)[C@H](C)[C@H]12 [meropenem, reference compound]
MIC: 10 µg/mL
